Reference: patent publication US10870658B2, “Aldose reductase inhibitors and methods of use thereof” (The Trustees of Columbia University in the City of New York, priority 2016, dated 2020)
Converted amounts (≈) assume the structure as drawn.

What was measured:
[1] = Equilibrium solubility in phosphate buffer, pH 7.4; assay type: physicochemical; details: aqueous buffer, thermodynamic from solid, phosphate buffer pH 7.4, shaken overnight at room temperature, LC-MS/MS
Procedure: Equilibrium Solubility in Phosphate Buffer, pH 7.4:
The equilibrium solubility of test articles was measured in pH 7.4 aqueous buffers. […] At least 1 mg of powder for each test article was combined with 1 mL of buffer to make a≥1 mg/mL mixture. These samples were shaken on a Thermomixer® overnight at room temperature. The samples were then centrifuged for 10 minutes at 10,000 rpm. […] Standard concentrations ranged from 1.0 μM to 1.0 nM.

physchem = details: octanol/phosphate buffer, pH 7.4
Procedure: Octanol/Buffer Partition Coefficient (Log D) at pH 7.4:
The octanol/buffer partition coefficient of three test articles was measured at pH 7.4. The pH 7.4 buffer was prepared by combining 50 mL of 0.2 M solution of KH2PO4 with 150 mL of dH2O, and then adjusting to pH 7.4 with 10 N NaOH. In a single incubation, 15 μL of a 10 mM DMSO solution of each test article (100 μM) was added to test tubes which contained 0.75 mL of octanol and 0.75 mL of pH 7.4 phosphate buffer. Testosterone was also introduced to each tube as an internal control, also at a dosing concentration of 100 μM. These samples were gently mixed on a benchtop rotator for 1 hour at room temperature. The tubes were then removed from the rotator and the aqueous and organic phases were allowed to separate for 1 hour. An aliquot of the organic layer was taken and diluted 200-fold into a mixture of 1:1 buffer:acetonitrile (ACN). An aliquot of the aqueous layer was taken and diluted 2-fold, 10-fold, and 200-fold into a mixture of 1:1 buffer:ACN. All samples were assayed by LC-MS/MS using electrospray ionization.

Aldose Reductase = Aldose Reductase (Homo sapiens, UniProt P15121); assay: Aldose reductase enzymatic inhibition (micro plate assay, D-glyceraldehyde and NADPH, absorbance at 340 nm); assay type: biochemical; details: D-glyceraldehyde and NADPH as substrate; 0.1 nm to 10 uM
Procedure: Aldose Reductase Enzymatic Inhibition:
All compounds and Zopolrestat were tested individually in a micro plate assay for AR inhibition using D-glyceraldehyde and NADPH as substrate and the absorbance changes at 340 nm was monitored. % Inhibition was calculated for ARIs at concentration ranging 0.1 nm to 10 uM.

[2] = positive control, octanol/buffer pH 7.4; cited from earlier work

O=C(O)Cc1nn(Cc2nc3cc(C(F)(F)F)ccc3s2)c(=O)c2c(Cl)sc(Cl)c12 [Compound VII, 2-(5,7-dichloro-4-oxo-3-((5-(trifluoromethyl)benzo[d]thiazol-2-yl)methyl)-3,4-dihydrothieno[3,4-d]pyridazin-1-yl)acetic acid]
melting point: 205 to 207 °C

O=C(O)Cc1nn(Cc2nc3cc(C(F)(F)F)ccc3s2)c(=O)c2cscc12 [Compound XII, 2-(4-oxo-3-((5-(trifluoromethyl)benzo[d]thiazol-2-yl)methyl)-3,4-dihydrothieno[3,4-d]pyridazin-1-yl)acetic acid]
solubility [1]: 970 µg/mL (≈ 2280 µM)
logD (physchem): -0.09

O=C(O)Cc1nn(Cc2nc3cc(F)ccc3s2)c(=O)c2cscc12 [Compound XIV, 2-(3-((5-fluorobenzo[d]thiazol-2-yl)methyl)-4-oxo-3,4-dihydrothieno[3,4-d]pyridazin-1-yl)acetic acid]
solubility [1]: 650 µg/mL (≈ 1730 µM)
IC50 (Aldose Reductase): 60 nM
melting point: 172 to 173 °C
logD (physchem): -0.87

O=C(O)Cc1nn(Cc2nc3ccccc3s2)c(=O)c2cscc12 [Compound XVI, 2-(3-(benzo[d]thiazol-2-ylmethyl)-4-oxo-3,4-dihydrothieno[3,4-d]pyridazin-1-yl)acetic acid]
melting point: 172 to 173 °C

O=C(O)Cc1nn(Cc2nc3cc(Cl)ccc3s2)c(=O)c2cscc12 [Compound XX, 2-(3-((5-chlorobenzo[d]thiazol-2-yl)methyl)-4-oxo-3,4-dihydrothieno[3,4-d]pyridazin-1-yl)acetic acid]
solubility [1]: 590 µg/mL (≈ 1510 µM)
IC50 (Aldose Reductase): 35 nM
melting point: 184 to 185 °C
logD (physchem): -0.35

CC(C)(C)OC(=O)Cc1nn(Cc2cc3cc(Cl)ccc3o2)c(=O)c2cscc12 [Compound XXIII, tert-butyl 2-(3-((5-chlorobenzofuran-2-yl)methyl)-4-oxo-3,4-dihydrothieno[3,4-d]pyridazin-1-yl)acetate]
melting point: 117 to 118 °C

O=C(O)Cc1nn(Cc2cc3cc(Cl)ccc3o2)c(=O)c2cscc12 [Compound XXIV, 2-(3-((5-chlorobenzofuran-2-yl)methyl)-4-oxo-3,4-dihydrothieno[3,4-d]pyridazin-1-yl)acetic acid]
melting point: 154 to 155 °C

O=C(O)Cc1nn(Cc2cc3ccccc3o2)c(=O)c2cscc12 [Compound XXVI, 2-(3-(benzofuran-2-ylmethyl)-4-oxo-3,4-dihydrothieno[3,4-d]pyridazin-1-yl)acetic acid]
solubility [1]: 790 µg/mL (≈ 2320 µM)
IC50 (Aldose Reductase): 57 nM
melting point: 158 to 159 °C
logD (physchem): -0.86

C[C@]12CC[C@H]3[C@@H](CCC4=CC(=O)CC[C@@]43C)[C@@H]1CC[C@@H]2O [Testosterone]
Log D (published/known) [2]: 3.0-3.4
